Data as given in patent US5236927A, “Anti-cancer quinazoline derivatives” (National Research Development Corporation, priority 1985, dated 1993).
Values joined by “and” are separate entries in the source; they are usually repeats but may differ in a detail not shown here. Equal entries are not always repeated. Where two headings read alike, the source gives them in different places.

How the values were obtained:
[1] = Pharmacokinetics in rats; details: 100 mg/kg 1 h i.v. infusion; for concentration: read-out: Plasma levels
Description: (§2) During and after the infusion blood and bile samples were collected. Four hours after the experiment the rats were sacrificed and the urine collected from the bladder and the liver and kidneys removed.
(§3) Samples of plasma were also analysed for alanine transaminase.

[2] = tested on: L1210 cells; experiment: Reversal of L1210 toxicity by co-incubation with thymidine; format: cell-based
Description: Cells in the log phase of growth were diluted to about 5×10^4 /ml and duplicate 5ml aliquots were added to 50 ml tissue culture flasks containing the appropriate additions (diluted in RPMI and sterilised by Millipore filtration). Cell counts after 48 hours of incubation were obtained by Coulter counting.

[3] = tested on: L1210/C15 cells; experiment: L1210/C15 cell culture growth inhibition (overproduces TS 45-fold); format: cell-based; details: 48 hours; at 100 uM
Description: Cell counts after 48 hours of incubation were obtained by Coulter counting.

[4] = tested on: de novo thymidylate synthesis in L1210 cells; experiment: Incorporation of 3H dUrd into acid-precipitable material in L1210 cells; format: cell-based; details: Mus musculus, L1210, 10 min; 10 uM, by about 10 minutes
Description: L1210 cells were used at a concentration of 10^5 /ml. Incubation at 37° C. was in complete RPMI tissue culture medium plus or minus drugs for the lengths of time indicated on the graphs. After this time ^3 H dUrd was added at a concentration of 2 uCi/ml (about 0.2 uM). Three 1 ml aliquots were removed after 20 minutes, placed on ice and mixed with 1 ml of ice-cold phosphate buffered saline (PBS). Precipitation onto glass-fibre discs was performed by trichloroacetic acid washing followed by PBS. […] This is an indirect measurement of de novo thymidylate synthesis in whole cells. […] These concentrations are 10 times the ID50 values.

[5] = tested on: alanine transaminase; details: rat, in vivo
Description: as §2, §3

[6] = Urinary and faecal elimination in the mouse; format: in vivo; details: 100 mg/kg i.p.; for dose excreted at 48 h: ip, 0-48 h
[7] = Toxicity and weight loss in treated L1210 tumour-bearing mice; format: in vivo, mouse
Description: (§1) The L1210 tumour is carried routinely in DBA2 mice at the Institute of Cancer Research (L1210/CBRI). For experiments 5×10^4 cells were implanted i.p. into male C57Bl×DBA2 F1 hybrid mice 3 days prior to treatment. […] The control group consisted of 9 mice and treated groups 6 or 7 mice.

[8] = Comparative pharmacokinetics in the mouse (plasma, liver, kidney levels); format: in vivo; details: for concentration at 3 h / concentration at 6 h: plasma, ip, read-out: Plasma quinazoline conc.
Description: 3 Hours and 6 hours after administration groups of three mice at each dose level were sacrificed by exsanguination via cardiac puncture. Plasma was prepared and the livers and kidneys excised and weighed.

[9] = tested on: alanine transaminase; experiment: Hepatotoxicity in rats (plasma alanine transaminase); details: 100 mg/kg 1 h i.v. infusion
Description: as §2, §3

[10] = tested on: alanine transaminase; experiment: Comparative hepatotoxicity in the mouse (plasma alanine transaminase); format: in vivo
Description: […]. Plasma was prepared and the livers and kidneys excised and weighed.
Samples of plasma were also analysed for the enzyme alanine transaminase, an indicator of hepatotoxicity. […]

[11] = tested on: L1210 tumour; experiment: Treatment of L1210 tumour-bearing mice; format: in vivo, mouse
Description: as §1

[12] = compound 5 uM + 10 uM thymidine
[13] = 100 mg/kg i.p., 3 h post-treatment
[14] = 100 mg/kg i.p., 6 h post-treatment
[15] = 300 mg/kg i.p., 3 h post-treatment
[16] = 300 mg/kg i.p., 6 h post-treatment
[17] = 500 mg/kg i.p., 3 h post-treatment
[18] = 500 mg/kg i.p., 6 h post-treatment

Q: What does the source list for `C#CCN(Cc1ccc2nc[nH]c(=O)c2c1)c1ccc(C(=O)N[C@@H](CCC(=O)O)C(=O)O)cc1` [CB3804, N-(4-(N-((3,4-dihydro-4-oxo-6-quinazolinyl)methyl)prop-2-ynylamino)benzoyl)-L-glutamic acid]?
A: detection in liver or kidneys at the end of the experiment ([1]; rats): no CB3804 could be detected; Kidney level ([1]; individual rats): < 0.5 % dose; Liver level ([1]; individual rats): < 0.5 % dose; Cumulative biliary excretion ([1]; individual rats, 100 mg/kg): 80 % dose; Cumulative urinary excretion ([1]; individual rats, 100 mg/kg): 7 % dose; dose excreted ([1]; rat, bile, iv, 100 mg/kg, Cumulative biliary excretion, individual rats): 72%; concentration at 1 h ([1]; rat, plasma, iv, 100 mg/kg, Plasma levels, end inf, individual rats): 274 µM; concentration at 2 h ([1]; rat, plasma, iv, 100 mg/kg, Plasma levels, inf + 1 h, individual rats): 10 µM; concentration at 3 h ([1]; rat, plasma, iv, 100 mg/kg, Plasma levels, inf + 2 h, individual rats): < 2 µM; concentration at 4 h ([1]; rat, plasma, iv, 100 mg/kg, Plasma levels, inf + 3 h, individual rats): < 2 µM; concentration at 5 h ([1]; rat, plasma, iv, 100 mg/kg, Plasma levels, inf + 4 h, individual rats): < 2 µM; concentration at 0.5 h ([1]; rat, plasma, iv, 100 mg/kg, Plasma levels, mid inf, individual rats): 275 µM; dose excreted ([1]; rat, urine, iv, 100 mg/kg, Cumulative urinary excretion, individual rats): 11%; concentration ([1]; end inf, individual rats, 100 mg/kg, 60 min): 256 µM; concentration ([1]; inf + 1 h, individual rats, 120 min, 100 mg/kg, 120 min): 19 µM; concentration ([1]; inf + 2 h, individual rats, 180 min): < 2 µM; concentration ([1]; inf + 3 h, individual rats, 240 min): < 2 µM; concentration ([1]; inf + 4 h, individual rats, 300 min): < 2 µM; concentration ([1]; mid inf, individual rats, 30 min, 100 mg/kg, 30 min): 258 µM; Cell count at 48 hours as % control [2, 12]: 98 % control; Reversal of L1210 toxicity by thymidine [2, 12]: reversal was complete; Cell count at 48 hours as % control ([2]; compound 50 uM + 10 uM thymidine): 75 % control; L1210/C15 ID50 [3]: no inhibition; activity at 10 µM [4]: < 20%; hepatotoxicity [5]: not hepatotoxic; bioavailability following i.p. administration [6]: satisfactory bioavailability; components in faeces which may represent metabolites [6]: two components were observed in faeces; dose excreted at 48 h ([6]; faeces, read-out: Faecal excretion of the parent compound): 15 ± 13%; dose excreted at 48 h ([6]; urine, read-out: Urinary excretion of the parent compound): 4 ± 1%; signs of toxicity ([7]; 200 mg/kg i.p. daily ×5): no obvious signs of toxicity; weight loss ([7]; 200 mg/kg i.p. daily ×5): no weight loss occurred; signs of toxicity ([7]; dose levels up to 200 mg/kg): No signs of toxicity were apparent; Kidney quinazoline level [8, 13]: < 0.1 % dose administered; Liver quinazoline level [8, 13]: < 0.1 % dose administered; Kidney quinazoline level [8, 14]: < 0.1 % dose administered; Liver quinazoline level [8, 14]: < 0.1 % dose administered; Kidney quinazoline level [8, 15]: < 0.03 % dose administered; Liver quinazoline level [8, 15]: < 0.03 % dose administered; Kidney quinazoline level [8, 16]: < 0.03 % dose administered; Liver quinazoline level [8, 16]: < 0.03 % dose administered; Kidney quinazoline level [8, 17]: < 0.1 % dose administered; Liver quinazoline level [8, 17]: < 0.2 % dose administered; Kidney quinazoline level [8, 18]: < 0.1 % dose administered; Liver quinazoline level [8, 18]: < 0.2 % dose administered; detection in plasma, liver and kidneys ([8]; mice, 3 and 6 hours after i.p. dose, for CB3804 except plasma 3 h at 500 mg/kg): below the limit of detection; accumulation in the kidneys ([8]; mouse, in vivo): does not apparently accumulate in the kidneys; concentration at 3 h ([8]; mouse, 100 mg/kg i.p., 3 h post-treatment): < 5 µM; concentration at 6 h ([8]; mouse, 100 mg/kg i.p., 6 h post-treatment): < 5 µM; concentration at 3 h ([8]; mouse, 300 mg/kg i.p., 3 h post-treatment): < 5 µM; concentration at 6 h ([8]; mouse, 300 mg/kg i.p., 6 h post-treatment): < 5 µM; concentration at 3 h ([8]; mouse, 500 mg/kg i.p., 3 h post-treatment): 5 µM; concentration at 6 h ([8]; mouse, 500 mg/kg i.p., 6 h post-treatment): < 5 µM; plasma levels of alanine transaminase (in words) ([9]; rats): did not; Peak plasma alanine transaminase ([9]; individual rats): 57 % pre treatment and 143 % pre treatment; Plasma alanine transaminase level [10, 13]: 19 ± 3 U/L; Plasma alanine transaminase level [10, 14]: 10 ± 6 U/L; Plasma alanine transaminase level [10, 15]: 10 ± 4 U/L; Plasma alanine transaminase level [10, 16]: 8 ± 3 U/L; Plasma alanine transaminase level [10, 17]: 16 ± 3 U/L; Plasma alanine transaminase level [10, 18]: 16 ± 2 U/L; Levels of alanine transaminase (in words) ([10]; mice i.p., normal range 5-25U/l): within the normal range; hepatotoxicity ([10]; mice, at the doses studied): not hepatotoxic; anti-tumour effectiveness ([11]; 25 mg/kg i.p. daily ×5, versus other treatments): much less effective; "cures" (survived >100 days) ([11]; 50 mg/kg i.p. daily ×5): about 65%; "cures" (survived >100 days) ([11]; 100 mg/kg i.p. daily ×5): about 80%; anti-tumour activity compared with CB3717 ([11]; in vivo): comparable anti-tumour activity
